In patent publication US11203777B2, “Method of preparing sterilized compositions for stabilization of extracellular nucleic acids” (Qiagen GmbH, priority 2015, dated 2021):
Residues, ends and D or L forms follow the SMILES beside them. *: point of attachment. Cbz = O=C(OCc1ccccc1)*; CH2F = FC*

Key:
[1] = test system: ccfDNA level in whole blood (66 bp and 500 bp fragments of the 18S rDNA gene); experiment: ccfDNA stabilization in stored whole blood, real time PCR of 18S rDNA fragments in plasma; conditions: for copy numbers of the 500 bp fragment of the 18S rDNA gene: caspase inhibitor approx. 5 μM in stabilized blood; for change of copy numbers (x fold change) of 66 bp and 500 bp fragments of the 18S rDNA gene: 6 days at room temperature, FIG. 3
Description: Blood was drawn into Alpha BCT for stabilization of the ccfDNA level. 10 ml spray dried EDTA tubes (BD) with 1.8 mg K2EDTA per ml of whole blood served as non-stabilized negative control. Blood and reagents were mixed by inverting the tube ten times. Stabilized and non-stabilized blood samples were stored at room temperature standing in an upright position.
Whole blood samples were centrifuged at ambient temperature for 15 min at 1.900×g. The clear plasma fraction was transferred into a fresh centrifuge tube. In a second round, plasma samples were centrifuged for 10 min at 16.000×g in case of non-stabilized EDTA-blood or for 10 min at 1.900×g in case of stabilized Alpha BCT blood. The supernatant was transferred into a new tube and used either directly for the purification of ccfDNA or stored at −20° C. until use.
DNA from plasma was isolated with the QIAamp circulating nucleic acid kit (QIAGEN GmbH), using the protocol for purification of circulating nucleic acids from 1 ml, 2 ml, or 3 ml serum or plasma. If not stated otherwise, 2 ml of plasma was mixed with proteinase K and lysis buffer ACL, incubated for 30 min at 60° C., mixed with buffer ACB, bound on QIAamp Mini columns with the use of a QIAvac 24 Plus vacuum manifold, washed and eluted with 60 μl elution buffer AVE, according to the manufactures recommendations.
ccfDNA from 2 ml plasma was isolated with a preliminary version of the QIAsymphony Circulating DNA protocol and kit (QIAGEN). If not stated otherwise, the QIAsymphony robot mixed 2 ml of plasma with proteinase K, binding buffer and magnetic beads. Beads with bound DNA were washed three times and DNA was eluted using 60 μl elution buffer.
To measure the amount of ccfDNA, a real time PCR assay on Abi Prism HT7900 (Life Technologies) was performed with 3 μl of eluate. In a 20 μl assay volume using QuantiTect Multiplex PCR Kit reagents (QIAGEN GmbH), two fragments of the human 18S rDNA gene were amplified in a multiplex PCR. Total quantification was achieved by comparison with a standard curve generated with human genomic DNA diluted from 3000 to 0.3 genome equivalents (1 genome equivalent equates to around 6.6 μg of human genomic DNA).
Quantification of the 66 bp fragment was used to reflect the total amount of 18S rDNA copies in the plasma. Quantification of the 500 bp was used to determine the amount of 18S rDNA copies which derived from apoptotic or mechanically lysed leukocytes from whole blood. […] The increase of copy numbers from the 500 bp fragment between day 0 and 3 or 6 days storage, was used as a measurement of stability efficiency.
PAXgene Blood ccfDNA Alpha tubes were produced and sterilized by gamma irradiation with different energy levels. Samples of 10 ml whole blood from eight donors were collected in 10 ml spray dry K2EDTA tubes (non-stabilized controls) and in PAXgene Blood ccfDNA Alpha tubes. Plasma was generated from 5 ml of stabilized or non-stabilized blood samples directly after blood draw. Residual blood was stored for additional 6 days at room temperature before plasma generation. ccfDNA was purified manually from 2 ml plasma, copy numbers of 18S rDNA gene were determined in triplicates by real time PCR.
Samples of 10 ml whole blood from eight donors were collected in 10 ml spray dry K2EDTA tubes. Directly after blood draw, non-stabilized blood samples were stabilized by addition of 1.7 ml of a ccfDNA stabilization reagent according to PCT/EP2015/055699 with or without addition of the different compounds tested for their impact on extracellular nucleic acid stabilization.
Plasma was generated from 5 ml of stabilized blood samples directly after the blood draw (day 0).

[2] = HPLC quantification of caspase inhibitor in stabilization reagent before and after gamma irradiation; type: physicochemical; conditions: for [Casp] (Pre-Irr) / [Casp] (Post-Irr): 50 ml bulk; for [Casp] (Post-Irr): 25 kGy
Description: Caspase inhibitor (Q-VD-OPh) was dissolved and diluted in DMSO for generation of a standard curve. Concentrations of 7.5, 15, 30 and 60 μg/ml were used to generate the standard curve.
Stabilization reagents containing a mixture of caspase inhibitor, EDTA, DMPA and PEG were tested before and after gamma irradiation. Unique peaks for caspase inhibitor were identified and compared to the standard curve for total quantification of caspase inhibitor. The concentration of caspase inhibitor was determined before and after irradiation, and these concentrations were compared for relative quantification.
For the production of PAXgene Blood ccfDNA Alpha blood collection tubes (Alpha BCT), BD standard tubes for 10 ml blood draw were filled with 1.3-1.7 ml ccfDNA stabilization reagent. The exemplary stabilization reagents tested comprised a mixture of caspase inhibitor (Q-VD-OPh), K2EDTA, DMPA, PEG300 and PEG10000, according to PCT/EP2015/055699. A vacuum was applied to the tubes to allow for a 10.25 ml blood draw. Tubes were sterilized by gamma irradiation using Cobalt-60 as energetic gamma ray source in a range of 5 to 35 kGy. […]
Stabilization reagents were produced with or without the addition of radical scavengers and sterilized in bulk by gamma irradiation. The caspase inhibitor concentration was measured by HPLC before and after irradiation to determine the effect of scavenger addition on caspase inhibitor degradation during sterilization by gamma irradiation.
Stabilization reagents according to PCT/EP2015/055699 were produced with or without the addition of radical scavengers in different concentrations and with different concentrations of caspase inhibitor. PAXgene Blood ccfDNA Alpha tubes were produced by filling 1.7 ml of the respective stabilization reagent into a standard Vacutainer. Tubes were sterilized by gamma irradiation with different energy levels. The caspase inhibitor concentration was measured by HPLC before and after irradiation (see Table 7 below).

[3] = scavenger 5-10 mg/ml, 0.5-1% (w/v)
[4] = scavenger 1 mg/ml, casp-inh. 5 μM, 0 kGy
[5] = scavenger 1 mg/ml, casp-inh. 5 μM, 20 kGy
[6] = scavenger 1 mg/ml, casp-inh. 5 μM, 30 kGy
[7] = 6 donors, 5 days at room temperature, FIG. 10
[8] = scavenger 0.1-1 mg/ml, 0.01-0.1% (w/v)
[9] = scavenger 0.5-10 mg/ml, 0.05-1% (w/v)

SMILES: O=C1O[C@H]([C@@H](O)CO)C(O)=C1O [Ascorbic acid]
- average total copy numbers of the 500 bp fragment of the 18S rDNA gene ([1]; scavenger 20 mg/ml, directly after blood collection, FIG. 5): reduced ccfDNA absolute copy numbers
- Effect on ccfDNA stability [1, 3]: neutral
- HPLC Testing [C-Inh] [2, 4]: 18.2 µg/mL
- HPLC Testing [C-Inh] [2, 5]: 7.0 µg/mL
- HPLC Testing [C-Inh] [2, 6]: 5.0 µg/mL
- HPLC Testing [C-Inh] ([2]; scavenger 2 mg/ml, casp-inh. 5 μM, 10 kGy): 15.2 µg/mL
- HPLC Testing [C-Inh] ([2]; scavenger 2 mg/ml, casp-inh. 5 μM, 20 kGy): 10.7 µg/mL
- HPLC Testing [C-Inh] ([2]; scavenger 2 mg/ml, casp-inh. 5 μM, 30 kGy): 9.5 µg/mL
- [Casp] (Pre-Irr) ([2]; scavenger 5 mg/ml-27.5 mM): 16.522 µg/mL
- [Casp] (Post-Irr) ([2]; scavenger 5 mg/ml-27.5 mM): 12.5986 µg/mL
- HPLC Testing [C-Inh] ([2]; scavenger 5 mg/ml, casp-inh. 5 μM, 0 kGy): 19.2 µg/mL
- HPLC Testing [C-Inh] ([2]; scavenger 5 mg/ml, casp-inh. 5 μM, 10 kGy): 16.0 µg/mL
- HPLC Testing [C-Inh] ([2]; scavenger 5 mg/ml, casp-inh. 5 μM, 20 kGy): 12.8 µg/mL
- HPLC Testing [C-Inh] ([2]; scavenger 5 mg/ml, casp-inh. 5 μM, 30 kGy): 12.1 µg/mL
- HPLC Testing [C-Inh] ([2]; scavenger 5 mg/ml, casp-inh. 10 μM, 0 kGy): 37.7 µg/mL
- HPLC Testing [C-Inh] ([2]; scavenger 5 mg/ml, casp-inh. 10 μM, 10 kGy): 31.2 µg/mL
- HPLC Testing [C-Inh] ([2]; scavenger 5 mg/ml, casp-inh. 10 μM, 20 kGy): 26.8 µg/mL
- HPLC Testing [C-Inh] ([2]; scavenger 5 mg/ml, casp-inh. 10 μM, 30 kGy): 23.7 µg/mL
- HPLC Testing [C-Inh] ([2]; scavenger 5 mg/ml, casp-inh. 15 μM, 0 kGy): 55.5 µg/mL
- HPLC Testing [C-Inh] ([2]; scavenger 5 mg/ml, casp-inh. 15 μM, 10 kGy): 46.4 µg/mL
- HPLC Testing [C-Inh] ([2]; scavenger 5 mg/ml, casp-inh. 15 μM, 20 kGy): 40.6 µg/mL
- HPLC Testing [C-Inh] ([2]; scavenger 5 mg/ml, casp-inh. 15 μM, 30 kGy): 35.5 µg/mL
- HPLC Testing [C-Inh] ([2]; scavenger 10 mg/ml, casp-inh. 5 μM, 0 kGy): 18.4 µg/mL
- HPLC Testing [C-Inh] ([2]; scavenger 10 mg/ml, casp-inh. 5 μM, 10 kGy): 16.0 µg/mL
- HPLC Testing [C-Inh] ([2]; scavenger 10 mg/ml, casp-inh. 5 μM, 20 kGy): 13.5 µg/mL
- Protection against gamma irradiation [2, 3]: high

SMILES: COC(=O)CC(NC(=O)OC(C)(C)C)C(=O)CF [Boc-D-(OMe)-FMK]
- copy numbers of the 500 bp fragment of the 18S rDNA gene [1, 7]: comparable to the fragment numbers in blood stabilized with the PAXgene Blood ccfDNA Tube

SMILES: O=C(O)c1cc(O)c(O)c(O)c1 [Gallic acid]
- change of copy numbers (x fold change) of 66 bp and 500 bp fragments of the 18S rDNA gene ([1]; scavenger 2 mg/ml in non-irradiated reagent, 8 donors): lead to an increased release of DNA
- [Casp] (Pre-Irr) ([2]; scavenger 500 μg/ml-2.9 mM): 16.633 µg/mL
- [Casp] (Post-Irr) ([2]; scavenger 500 μg/ml-2.9 mM): 0.5888 µg/mL
- Protection against gamma irradiation ([2]; scavenger 0.5-2 mg/ml, 0.2% (w/v)): none

SMILES: N[C@@H](CCC(=O)N[C@@H](CS)C(=O)NCC(=O)O)C(=O)O [Glutathione]
- Effect on ccfDNA stability [1, 8]: neutral
- HPLC Testing [C-Inh] ([2]; scavenger 0.05 mg/ml, casp-inh. 5 μM, 0 kGy): 19.1 µg/mL
- HPLC Testing [C-Inh] ([2]; scavenger 0.05 mg/ml, casp-inh. 5 μM, 10 kGy): 14.1 µg/mL
- HPLC Testing [C-Inh] ([2]; scavenger 0.05 mg/ml, casp-inh. 5 μM, 20 kGy): 8.9 µg/mL
- HPLC Testing [C-Inh] ([2]; scavenger 0.05 mg/ml, casp-inh. 5 μM, 30 kGy): 6.6 µg/mL
- [Casp] (Pre-Irr) ([2]; scavenger 100 μg/ml-320 μM): 16.454 µg/mL
- [Casp] (Post-Irr) ([2]; scavenger 100 μg/ml-320 μM): 10.4422 µg/mL
- HPLC Testing [C-Inh] ([2]; scavenger 0.1 mg/ml, casp-inh. 5 μM, 0 kGy): 18.8 µg/mL
- HPLC Testing [C-Inh] ([2]; scavenger 0.1 mg/ml, casp-inh. 5 μM, 10 kGy): 14.3 µg/mL
- HPLC Testing [C-Inh] ([2]; scavenger 0.1 mg/ml, casp-inh. 5 μM, 20 kGy): 9.9 µg/mL
- HPLC Testing [C-Inh] ([2]; scavenger 0.1 mg/ml, casp-inh. 5 μM, 30 kGy): 7.5 µg/mL
- HPLC Testing [C-Inh] ([2]; scavenger 0.1 mg/ml, casp-inh. 10 μM, 0 kGy): 37.9 µg/mL
- HPLC Testing [C-Inh] ([2]; scavenger 0.1 mg/ml, casp-inh. 10 μM, 10 kGy): 29.4 µg/mL
- HPLC Testing [C-Inh] ([2]; scavenger 0.1 mg/ml, casp-inh. 10 μM, 20 kGy): 23.3 µg/mL
- HPLC Testing [C-Inh] ([2]; scavenger 0.1 mg/ml, casp-inh. 10 μM, 30 kGy): 17.7 µg/mL
- HPLC Testing [C-Inh] ([2]; scavenger 0.1 mg/ml, casp-inh. 15 μM, 0 kGy): 55.5 µg/mL
- HPLC Testing [C-Inh] ([2]; scavenger 0.1 mg/ml, casp-inh. 15 μM, 10 kGy): 42.7 µg/mL
- HPLC Testing [C-Inh] ([2]; scavenger 0.1 mg/ml, casp-inh. 15 μM, 20 kGy): 33.2 µg/mL
- HPLC Testing [C-Inh] ([2]; scavenger 0.1 mg/ml, casp-inh. 15 μM, 30 kGy): 25.0 µg/mL
- HPLC Testing [C-Inh] ([2]; scavenger 0.2 mg/ml, casp-inh. 5 μM, 0 kGy): 19.9 µg/mL
- HPLC Testing [C-Inh] ([2]; scavenger 0.2 mg/ml, casp-inh. 5 μM, 20 kGy): 11.9 µg/mL
- HPLC Testing [C-Inh] ([2]; scavenger 0.2 mg/ml, casp-inh. 5 μM, 30 kGy): 10.2 µg/mL
- HPLC Testing [C-Inh] ([2]; scavenger 0.5 mg/ml, casp-inh. 5 μM, 10 kGy): 15.4 µg/mL
- HPLC Testing [C-Inh] ([2]; scavenger 0.5 mg/ml, casp-inh. 5 μM, 20 kGy): 12.3 µg/mL
- HPLC Testing [C-Inh] ([2]; scavenger 0.5 mg/ml, casp-inh. 5 μM, 30 kGy): 11.1 µg/mL
- HPLC Testing [C-Inh] [2, 4]: 20.0 µg/mL
- HPLC Testing [C-Inh] [2, 5]: 13.8 µg/mL
- HPLC Testing [C-Inh] [2, 6]: 12.6 µg/mL
- Protection against gamma irradiation [2, 8]: high

SMILES: CC(C)O [Isopropanol]
- Protection against gamma irradiation ([2]; scavenger 1% (v/v)): none
- [Casp] (Pre-Irr) ([2]; scavenger 1%): 16.572 µg/mL
- [Casp] (Post-Irr) ([2]; scavenger 1%): 0.8517 µg/mL

SMILES: OC[C@@H](O)[C@@H](O)[C@H](O)[C@H](O)CO [Mannitol]
- Protection against gamma irradiation ([2]; scavenger 5 mg/ml, 0.5% (w/v)): none
- [Casp] (Pre-Irr) ([2]; scavenger 0.5%): 16.554 µg/mL
- [Casp] (Post-Irr) ([2]; scavenger 0.5%): 1.0667 µg/mL

SMILES: CC(=O)N[C@@H](CS)C(=O)O [N-acetyl-L-cysteine]
- protection of caspase inhibitors from gamma-irradiation (copy numbers of the 500 bp fragment) ([1]; 0.5 mg/ml in reagent, 30 kGy, 6 donors, 5 days at room temperature, FIG. 10): efficiently protected the caspase inhibitors Boc-D-(OMe)-FMK and Z-VAD (OMe)-FMK from gamma-irradiation
- Effect on ccfDNA stability [1, 9]: neutral
- [Casp] (Pre-Irr) ([2]; scavenger 2 mg/ml-12 mM): 16.468 µg/mL
- [Casp] (Post-Irr) ([2]; scavenger 2 mg/ml-12 mM): 14.1849 µg/mL
- Protection against gamma irradiation [2, 9]: high

SMILES: O=C(OC[C@H]1O[C@@H](OC(=O)c2cc(O)c(O)c(OC(=O)c3cc(O)c(O)c(O)c3)c2)[C@H](OC(=O)c2cc(O)c(O)c(OC(=O)c3cc(O)c(O)c(O)c3)c2)[C@@H](OC(=O)c2cc(O)c(O)c(OC(=O)c3cc(O)c(O)c(O)c3)c2)[C@@H]1OC(=O)c1cc(O)c(O)c(OC(=O)c2cc(O)c(O)c(O)c2)c1)c1cc(O)c(O)c(OC(=O)c2cc(O)c(O)c(O)c2)c1 [Tannic acid]
- change of copy numbers (x fold change) of 66 bp and 500 bp fragments of the 18S rDNA gene ([1]; scavenger 1 mg/ml in non-irradiated reagent, 8 donors): lead to an increased release of DNA

SMILES: Cc1c(C)c2c(c(C)c1O)CCC(C)(C(=O)O)O2 (stereo not drawn) [Trolox, 6-hydroxy-2,5,7,8-tetramethylchromane-2-carboxylic acid]
- [Casp] (Pre-Irr) ([2]; scavenger 4 mM): 16.534 µg/mL
- [Casp] (Post-Irr) ([2]; scavenger 4 mM): 3.0195 µg/mL
- [Casp] (Pre-Irr) ([2]; scavenger 5 mM in DMSO): 16.649 µg/mL
- [Casp] (Post-Irr) ([2]; scavenger 5 mM in DMSO): 3.3548 µg/mL

SMILES: CCCCCCCC/C=C\CCCCCCCC(=O)OCCOCC(OCCO)C1OCC(OCCO)C1OCCO (stereo not drawn) [Tween-80]
- [Casp] (Pre-Irr) ([2]; scavenger 0.6 mM): 16.550 µg/mL
- [Casp] (Post-Irr) ([2]; scavenger 0.6 mM): 0.8856 µg/mL
- Protection against gamma irradiation ([2]; scavenger 0.74 mg/ml, 0.07% (v/v)): none

SMILES: COC(=O)C[C@H](NC(=O)[C@H](C)NC(=O)[C@@H](NC(=O)OCc1ccccc1)C(C)C)C(=O)CF [Z-VAD (OMe)-FMK, Z-Val-Ala-Asp(OMe)-FMK] (Cbz-Val-Ala-Asp(OMe)-CH2F)
- copy numbers of the 500 bp fragment of the 18S rDNA gene [1, 7]: comparable to the fragment numbers in blood stabilized with the PAXgene Blood ccfDNA Tube

SMILES: Cc1ncc(CO)c(CO)c1O [vitamin B6, pyridoxine]
- number of 500 bp fragments of the 18S rDNA gene compared to the stabilization reagent without scavenger (irradiated) ([1]; 2 mg/ml in reagent, irradiated (30 kGy) as well as unirradiated, 8 donors, 5 days at room temperature, FIG. 9): only half
